These results are taken from US6197774A, “Pyrimidine derivative” (Otsuka Pharmaceutical Co., Ltd., priority 1997, dated 2001).

In test [1] the test system is formation of TNF-α in cell strain RAW 264.7. In words: Activity for inhibiting the formation of TNF-α in vitro (RAW 264.7 cells, ELISA). Type of test: cell-based. The note with it: Mus musculus, RAW264.7, control 100, LPS 100 ng/ml, 24 hours, read-out: Ratio of formed amount of TNF-α. The protocol: [Evaluation test of activity for inhibiting the formation of TNF-α in vitro]
(§1) Pyrimidine derivative obtained in Example 1 was used as test compound.
Cell strain RAW 264.7 (ATCC) derived from the macrophage of mouse was placed on each one of the wells on a microplate having 24-wells so as to put the cells in an amount of 3×10^5 cells/U (well). The cells were incubated for 24 hours in a phenol red free-RPMI-1640 culture medium (mfd. by GIBCO) to which 10% of equine serum (mfd. by Bio Whittaker), 100 U/ml of penicillin (mfd. by Dainippon Pharmaceutical Co., Ltd.) and 100 μg/ml of streptomycin (mfd. by Dainippon Pharmaceutical Co., Ltd.) were added.
Next, the equine serum was removed from the culture medium, and the reference culture medium as control was prepared by adding 2 mM of L-arginine (mfd. by Wako Pure Chemical Industries, Ltd.), 10 μM/ml of tetrahydrobiopterin (mfd. by ALEXIS) and 100 ng/ml of lipopolysaccharide (LPS)(mfd. by Sigma Chemical Co.) to a phenol red free-RPMI-1640 culture medium, so as to induce the formation of TNF-α.
On the other hand, the test culture medium, containing the test compound of Example 1 was prepared similarly as in the reference culture medium, except adding the test compound (1×10^-4, 1×10^-5 and 1×10^-6 M) dissolved in dimethyl sulfoxide (DMSO) at the same time of LPS-addition.
The concentration of TNF-α formed in the supernatant of each one of the culture media after 24 hour-incubation was measured by Factor-Test-X Mouse TNF-α ELISA Kit (mfd. by genzyme).

Test [2] has as its target T1, 5-lipoxygenase (Rattus norvegicus, UniProt P12527).
T1 construct: Thus obtained supernatant was collected and concentrated so as to obtain crude enzyme containing 5-lipoxygenase; host or cells: rat basophilic leukemia-1 cells
T1 sequence (P12527 1-673): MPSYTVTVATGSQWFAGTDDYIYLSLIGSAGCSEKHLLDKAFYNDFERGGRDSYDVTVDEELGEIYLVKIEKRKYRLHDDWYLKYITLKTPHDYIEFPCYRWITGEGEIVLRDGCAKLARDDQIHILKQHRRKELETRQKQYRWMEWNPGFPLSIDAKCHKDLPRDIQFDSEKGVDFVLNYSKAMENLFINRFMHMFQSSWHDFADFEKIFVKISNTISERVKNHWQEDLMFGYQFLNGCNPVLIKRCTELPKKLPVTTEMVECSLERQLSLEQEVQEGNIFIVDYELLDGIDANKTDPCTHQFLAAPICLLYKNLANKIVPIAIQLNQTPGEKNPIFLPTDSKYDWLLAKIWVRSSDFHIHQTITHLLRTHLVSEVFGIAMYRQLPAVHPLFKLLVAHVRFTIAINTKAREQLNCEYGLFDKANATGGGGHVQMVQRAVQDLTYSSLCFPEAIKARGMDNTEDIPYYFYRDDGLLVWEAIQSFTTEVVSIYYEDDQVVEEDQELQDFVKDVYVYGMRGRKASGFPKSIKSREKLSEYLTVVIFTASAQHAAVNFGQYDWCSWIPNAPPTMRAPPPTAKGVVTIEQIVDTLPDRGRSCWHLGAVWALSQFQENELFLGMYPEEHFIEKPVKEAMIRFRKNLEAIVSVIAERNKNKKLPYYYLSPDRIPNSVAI
In words: Activity for inhibiting 5-lipoxygenase in vitro (crude enzyme from rat basophilic leukemia-1 cells, 5-HETE RIA). In kind it is biochemical. The settings on record: 8 minutes at 25° C. The procedure:
[Evaluation test of activity for inhibiting 5-lipoxygenase in vitro]
as §1
Test was referred to the methods as described in Proc. Natl. Acad. Sci. U.S.A., Vol. 81, pp. 689-693 (1984) and J. Biol. Chem., Vol. 260, pp. 11554--11559 (1985).
(1) Preparation of Crude Enzyme Containing 5-lipoxygenase
RBI-1 cells (rat basophilic leukemia-1, ATCC, 1×10^8 cells) in 5 ml of buffer solution (50 mM Tris/1 mM EDTA, pH 7.4) were lysed with nitrogen cavitation bomb (mfd. by PARR Instrument Company) under 750 psi for 20 min at 4° C. The solution were centrifuged with twice volume of 50 mM Tris/1 mM EDTA (pH 7.4) at 5000 rpm for 10 minutes at 4° C. The supernatant of the solution was taken and further centrifuged at 37,500 rpm for 90 minutes at 4° C. Thus obtained supernatant was collected and concentrated so as to obtain crude enzyme containing 5-lipoxygenase. Its protein concentration was determined with Protein assey kit (mfd. by Pierce).
(2) Evaluation of Activity for Inhibiting 5-lipoxygenase (RIA assay)
12.5 μl of Crude enzyme, 61.5 μl of 50 mM Tris-HCl (mfd. by Sigma Chemical Co.), 12.5 μl of 0.5 mM ATP (mfd. by Sigma Chemical Co.), and 12.5 μl of cofacter solution (50 mM Tris-HCl (pH 7.2, at 25° C.) containing 10 mM glutahion, 14 mM of indomethacin and 500 mM of CaCl2.2H2 O) were preincubated for […] at 25° C. for reference solution as control. On the other hand, the test solution containing the test compound of Example 1 was prepared similarly as in the reference solution, except adding 1 μl of the test compound (1×10^-4, 1×10^-5, and 1×10^-6 M).
25 μl of 0.07 mM Arachidonic acid (mfd. by Sigma Chemical Co.) was added each of the reference solution and test solutin to intiate the reaction, and incubated it for 8 minutes at 25° C. The reaction was terminated by adding 40 μl of citric acid (mfd. by Sigma Chemical Co.). […]
RIA assay was conducted by the 5-HETE [^3 H] […] RIA assay to determine the amount of 5-lipoxygenase by counting radioactivity on the liquid scintillation counter (mfd. by Beckman Co.). […]

On to `COCc1cc(=O)n2ncc(-c3ccc(Sc4ccccc4)cc3)c2[nH]1` [Example 1, 4,7-dihydro-5-methoxymethyl-7-oxo-3-(4-phenylthiophenyl)pyrazolo[1,5-a]pyrimidine], for which, in test [1] (1 × 10^-4 M), the activity at 100 µM stood at 5.1%. In addition, the activity at 10 µM in test [1] (1 × 10^-5 M) was 59.9%. Moreover, the activity at 1 µM in test [1] (1 × 10^-6 M) amounted to 120%. In addition, the inhibition – broadly, the change of the read-out against control, counted positive when it falls – at 100 µM in test [2] (1 × 10^-4 M) was found to be 24.3%. Besides, the inhibition at 10 µM in test [2] (1 × 10^-5 M) was 38.8%. This molecule gave an inhibition at 1 µM in test [2] (1 × 10^-6 M) of 68%.
